Test results published in article PMC6271513, “Design and Synthesis of Chalcone Derivatives as Inhibitors of the Ferredoxin — Ferredoxin-NADP^+ Reductase Interaction of Plasmodium falciparum: Pursuing New Antimalarial Agents” (Molecules, 2014).

Target: T1, PfFd-PfFNR (Plasmodium falciparum, UniProt C6KT68+Q8IED5)
T1 construct: gene FNR; recombinant PfFNR (E. coli TG1 pTrc99A) and PfFd (E. coli JM105 pTrc99A), purified; PfFd 2Fe-2S, PfFNR flavoprotein
Assay: cytochrome c reduction at […] nm, FNR-Fd electron transfer
Assay type: biochemical

T1 sequence (C6KT68 56-371): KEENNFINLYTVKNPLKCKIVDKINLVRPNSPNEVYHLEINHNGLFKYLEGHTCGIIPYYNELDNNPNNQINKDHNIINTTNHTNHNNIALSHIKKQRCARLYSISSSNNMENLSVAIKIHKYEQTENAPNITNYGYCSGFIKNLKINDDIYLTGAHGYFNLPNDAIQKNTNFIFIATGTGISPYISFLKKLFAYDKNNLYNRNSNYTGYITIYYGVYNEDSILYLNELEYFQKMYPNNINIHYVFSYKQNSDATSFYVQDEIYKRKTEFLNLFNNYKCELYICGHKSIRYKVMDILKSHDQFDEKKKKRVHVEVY
T1 sequence (Q8IED5 97-194 limits assumed): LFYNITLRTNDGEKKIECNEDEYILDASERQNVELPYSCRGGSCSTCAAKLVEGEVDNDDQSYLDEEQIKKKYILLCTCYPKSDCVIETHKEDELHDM

| Structure (SMILES) | inhibition at 100 µM [%] |
| --- | --- |
| COc1ccc(/C=C/C(=O)c2ccccc2)c(OC)c1 [compound 12, (E)-3-(2,4-Dimethoxyphenyl)-1-phenylprop-2-en-1-one] | 6.25 |
| COc1ccc(OC)c(/C=C/C(=O)c2ccc(Br)cc2)c1 [compound 16, (E)-1-(4-Bromophenyl)-3-(2,5-dimethoxyphenyl)prop-2-en-1-one] | 11.8 |
| O=C(/C=C/c1ccccc1)c1ccccc1 [compound 17, (E)-1,3-diphenyl-2-propen-1-one] | 22.1 |
| COc1ccccc1/C=C/C(=O)c1ccc(N)cc1 [compound 1, (E)-1-(4-Aminophenyl)-3-(2-methoxyphenyl)prop-2-en-1-one] | 15.8 |
| COc1ccc(OC)c(/C=C/C(=O)c2ccccc2)c1 [compound 13, (E)-3-(2,5-Dimethoxyphenyl)-1-phenylprop-2-en-1-one] | 5.88 |
| COc1ccccc1/C=C/C(=O)c1ccccc1 [compound 8, (E)-3-(2-Methoxyphenyl)-1-phenylprop-2-en-1-one] | -10.3 |
| COc1ccc(/C=C/C(=O)c2ccc(Br)cc2)c(OC)c1 [compound 15, (E)-1-(4-Bromophenyl)-3-(2,4-dimethoxyphenyl)prop-2-en-1-one] | 26.5 |
| COc1ccc(/C=C/C(=O)c2ccc(N)cc2)c(OC)c1 [compound 5, (E)-1-(4-Aminophenyl)-3-(2,4-dimethoxyphenyl)prop-2-en-1-one] | 38.2 |
| COc1cccc(/C=C/C(=O)c2ccccc2)c1OC [compound 11, (E)-3-(2,3-Dimethoxyphenyl)-1-phenylprop-2-en-1-one] | -5.88 |
| COc1cccc(/C=C/C(=O)c2ccc(N)cc2)c1OC [compound 4, (E)-1-(4-Aminophenyl)-3-(2,3-dimethoxyphenyl)prop-2-en-1-one] | 31.6 |
| COc1ccc(OC)c(/C=C/C(=O)c2ccc(N)cc2)c1 [compound 6, (E)-1-(4-Aminophenyl)-3-(2,5-dimethoxyphenyl)prop-2-en-1-one] | -14.1 |
| COc1cccc(/C=C/C(=O)c2ccccc2)c1 [compound 9, (E)-3-(3-Methoxyphenyl)-1-phenylprop-2-en-1-one] | 0 |
| COc1ccc(/C=C/C(=O)c2ccc(Br)cc2)cc1 [compound 14, (E)-1-(4-Bromophenyl)-3-(4-methoxyphenyl)prop-2-en-1-one] | 7.35 |
| Nc1ccc(C(=O)/C=C/c2ccccc2)cc1 [compound 7, (E)-1-(4-Aminophenyl)-3-phenylprop-2-en-1-one] | 10.9 |
| COc1cccc(/C=C/C(=O)c2ccc(N)cc2)c1 [compound 2, (E)-1-(4-Aminophenyl)-3-(3-methoxyphenyl)prop-2-en-1-one] | 22.4 |
| COc1ccc(/C=C/C(=O)c2ccccc2)cc1 [compound 10, (E)-3-(4-Methoxyphenyl)-1-phenylprop-2-en-1-one] | 4.69 |
